The record followed here is US8178486B2, “Method for promoting hair growth” (Animal Technology Institute Taiwan, priority 2005, dated 2012).

The subject of the assay is hair follicles. Briefly: Hair growth in 4-month old female mice, topical application to shaved dorsal skin. Format: in vivo. As for the experimental part: The marked areas of the mice were applied by spreading topically on the exposed skin areas 60 μl of aqueous solutions of bovine lactoferrin (200 mg/ml), 60 μl of control vehicle (water), and 60 μl of bovine lactoferricin, obtained as set forth in Example 3, (200 mg/ml) twice daily. Observation for hair growth in the marked areas is made daily after the first treatment. […] The hair growth-promoting effect of lactoferrin or lactoferricin was consistently observed in all tested mice. Although lactoferricin was prepared by the method described in Example 3 above, the present invention should not be limited to use only lactoferricin prepared in such manner. Lactoferricin prepared by other methods would still fall within the scope of the present invention.

For lactoferricin, the “amount of hair growth compared with area treated with lactoferrin of the same amount” value (200 mg/ml topically twice daily, 10 days) is “greater amount of hair growth”. In addition, the “hair growth observed in the treated skin area” value (60 μl of 200 mg/ml topically twice daily, after 10 days, not seen with control vehicle) is “prominent hair growth”.
